Test results: ChEMBL document CHEMBL3853353, “Identification and optimization of a new series of anti-tubercular quinazolinones” (Bioorg Med Chem Lett, 2016)
≈ marks a conversion by molar mass, not a printed value.

Tests used:
[1] = Cytotoxicity against human HepG2 cells assessed as reduction in cell viability after 40 hrs by Celltiter-Glo assay
[2] = tested on: Mycobacterium tuberculosis; assay: Ratio of MIC80 for Mycobacterium tuberculosis H37Rv in presence of 25% human serum to MIC80 for Mycobacterium tuberculosis H37Rv; type: functional
[3] = tested on: Mycobacterium tuberculosis; assay: Antimycobacterial activity against Mycobacterium tuberculosis H37Rv incubated for 5 days by Bactiter-Glo assay; type: functional; details: 120 h
[4] = Lipophilicity, log P of compound; details: octanol/water
[5] = Aqueous equilibrium solubility of compound in pH 1 solution at 20 degC; details: aqueous pH 1 solution
[6] = tested on: Mycobacterium tuberculosis; assay: Antimycobacterial activity against Mycobacterium tuberculosis H37Rv incubated for 5 days in presence of 25% human serum by Bactiter-Glo assay; type: functional; details: 120 h
[7] = Aqueous equilibrium solubility of compound in pH 7.4 solution at 20 degC; details: aqueous pH 7.4 solution
[8] = Permeability in human Caco2 cells; details: caco-2
Cytochrome P450 3A4 [9] = molecular target: T1, Cytochrome P450 3A4 (Homo sapiens, UniProt P08684); assay: Inhibition of CYP3A4 in human liver microsomes assessed as 1'-hydroxymidazolam metabolite formation using midazolam as substrate incubated for 10 mins by HPLC-MS method
Cytochrome P450 3A4 [10] = molecular target: T1, Cytochrome P450 3A4; assay: Inhibition of CYP3A4 in human liver microsomes assessed as 6-beta-hydroxytestosterone metabolite formation using testosterone as substrate incubated for 30 mins by HPLC-MS method
[11] = tested on: Mycobacterium tuberculosis; assay: Antimycobacterial activity against GFP-tagged Mycobacterium tuberculosis H37Rv infected in mouse RAW264.7 cells incubated for 4 days by Mask blue/Hoechst/FITC staining based fluorescence microscopic analysis; type: functional; details: 96 h

T1 sequence (P08684 whole entry): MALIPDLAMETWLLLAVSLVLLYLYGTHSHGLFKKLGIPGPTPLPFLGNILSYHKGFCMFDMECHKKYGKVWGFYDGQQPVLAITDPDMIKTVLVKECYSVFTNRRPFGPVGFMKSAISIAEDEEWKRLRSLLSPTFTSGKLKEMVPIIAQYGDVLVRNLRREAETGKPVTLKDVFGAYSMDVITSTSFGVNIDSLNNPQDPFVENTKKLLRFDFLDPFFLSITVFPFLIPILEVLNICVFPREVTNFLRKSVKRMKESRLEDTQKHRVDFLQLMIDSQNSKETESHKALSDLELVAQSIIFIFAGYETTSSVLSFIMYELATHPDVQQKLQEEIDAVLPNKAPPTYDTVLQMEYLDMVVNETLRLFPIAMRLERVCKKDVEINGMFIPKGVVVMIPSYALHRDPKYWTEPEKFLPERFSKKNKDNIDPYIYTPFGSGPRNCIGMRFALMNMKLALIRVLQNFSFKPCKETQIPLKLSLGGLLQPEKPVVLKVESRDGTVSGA

COc1ccc(-c2ccc(CCNc3nc4cc(Cl)ccc4c(=O)n3C)cc2)nc1
IC50 at 40 h ([1]; HepG2 cells): 11.9 µM | Ratio [2]: 8 | MIC80 [3]: 0.06 µM (≈ 0.0253 µg/mL) | logP [4]: 4.67

Cn1c(NCCc2ccc(-n3cc(Cl)cn3)cc2)nc2cc(Cl)ccc2c1=O
IC50 at 40 h ([1]; HepG2 cells): 21.6 µM | Ratio [2]: 8 | solubility thermodynamic [5]: < 1 µg/mL | MIC80 [3]: 0.01 µM (≈ 0.00414 µg/mL) | MIC80 [6]: 0.86 µM | solubility thermodynamic [7]: < 1 µg/mL | logP [4]: 4.67 | permeability [8]: Permeable | IC50 (Cytochrome P450 3A4 [9]): 16 µM

COc1ccc(CCNc2nc3cc(Cl)ccc3c(=O)n2C)nc1
IC50 at 40 h ([1]; HepG2 cells): 27 µM | Ratio [2]: 8 | solubility thermodynamic [5]: 1140 µg/mL (≈ 3300 µM) | MIC80 [3]: 0.53 µM (≈ 0.183 µg/mL) | solubility thermodynamic [7]: 9 µg/mL (≈ 26.1 µM) | IC50 (Cytochrome P450 3A4 [10]): 7.4 µM | logP [4]: 3.32 | permeability [8]: Permeable | IC50 (Cytochrome P450 3A4 [9]): < 1 µM

Cn1c(NCCc2ccc(-n3cccn3)cc2)nc2cc(Cl)ccc2c1=O
IC50 at 40 h ([1]; hepg2): 17.3 µM | MIC80 [3]: 0.02 µM (≈ 0.0076 µg/mL) | MIC80 [6]: 8.56 µM

Cn1c(NCCc2ccc(-c3ccccc3)nn2)nc2cc(Cl)ccc2c1=O
IC50 at 40 h ([1]; HepG2 cells): 15.1 µM | Ratio [2]: 8 | MIC80 [3]: 1.12 µM (≈ 0.439 µg/mL)

COc1ccc(-c2ccc(CCNc3nc4cc(Cl)ccc4c(=O)n3C)nn2)cc1
Ratio [2]: 8 | MIC80 [3]: 0.74 µM (≈ 0.312 µg/mL)

COc1ccc(-c2ccc(CCNc3nc4cc(Cl)ccc4c(=O)n3C)cc2)cc1
IC50 at 40 h ([1]; HepG2 cells): > 30 µM | Ratio [2]: 200 | solubility thermodynamic [5]: 26 µg/mL (≈ 61.9 µM) | MIC80 [3]: 0.007 µM (≈ 0.00294 µg/mL) | MIC80 [6]: 1.47 µM | solubility thermodynamic [7]: < 1 µg/mL | IC50 (Cytochrome P450 3A4 [10]): 7.9 µM | logP [4]: 5.13 | permeability [8]: Permeable | IC50 (Cytochrome P450 3A4 [9]): 8 µM

COc1cnc(-c2ccc(CCNc3nc4cc(Cl)ccc4c(=O)n3C)cc2)nc1
IC50 at 40 h ([1]; hepg2): > 30 µM | MIC80 [3]: 0.016 µM (≈ 0.00675 µg/mL) | MIC80 [6]: 3.52 µM | MIC80 [11]: 0.081 µM (≈ 0.0342 µg/mL)

Cn1c(NCCc2ccc(-c3ccccn3)cc2)nc2cc(Cl)ccc2c1=O
IC50 at 40 h ([1]; hepg2): 16.5 µM | MIC80 [3]: 0.027 µM (≈ 0.0106 µg/mL) | MIC80 [6]: 25.2 µM

COCCOc1ccc(CCNc2nc3cc(Cl)ccc3c(=O)n2C)cc1
IC50 at 40 h ([1]; HepG2 cells): > 30 µM | Ratio [2]: 8 | MIC80 [3]: 0.08 µM (≈ 0.031 µg/mL) | MIC80 [6]: > 10 µM | logP [4]: 3.86

COc1ccc(CCNc2nc3cc(C#N)ccc3c(=O)n2C)cc1
IC50 at 40 h ([1]; HepG2 cells): 12.7 µM | Ratio [2]: >10 | MIC80 [3]: 0.48 µM (≈ 0.161 µg/mL)

COc1ccc(CCNc2nc3cc(N)ccc3c(=O)n2C)cc1
Ratio [2]: 5 | MIC80 [3]: 0.04 µM (≈ 0.013 µg/mL) | MIC80 [6]: 0.198 µM | logP [4]: 1.94

Cn1c(NCCc2ccccc2)nc2cc(Cl)ccc2c1=O
IC50 at 40 h ([1]; HepG2 cells): 15.2 µM | Ratio [2]: 8 | solubility thermodynamic [5]: 180 µg/mL (≈ 574 µM) | MIC80 [3]: 0.06 µM (≈ 0.0188 µg/mL) | MIC80 [6]: 2.79 µM | solubility thermodynamic [7]: < 1 µg/mL | IC50 (Cytochrome P450 3A4 [10]): 18 µM | logP [4]: 4.24 | permeability [8]: Permeable | IC50 (Cytochrome P450 3A4 [9]): 11 µM

COc1ccc(CCNc2nc3cc(Cl)ccc3c(=O)[nH]2)cc1
Ratio [2]: >10 | MIC80 [3]: 6.3 µM (≈ 2.08 µg/mL)

COc1ccc(CCNc2nc3cc(OC)ccc3c(=O)n2C)cc1
IC50 at 40 h ([1]; HepG2 cells): > 30 µM | Ratio [2]: >10 | solubility thermodynamic [5]: 734 µg/mL (≈ 2160 µM) | MIC80 [3]: 0.026 µM (≈ 0.00882 µg/mL) | solubility thermodynamic [7]: 4 µg/mL (≈ 11.8 µM) | IC50 (Cytochrome P450 3A4 [10]): 10 µM | logP [4]: 3.1 | permeability [8]: Permeable | IC50 (Cytochrome P450 3A4 [9]): < 1 µM

Cn1c(NCCc2ccc(-c3ccc(Cl)cc3)nn2)nc2cc(Cl)ccc2c1=O
IC50 at 40 h ([1]; HepG2 cells): > 30 µM | Ratio [2]: 8 | MIC80 [3]: 0.03 µM (≈ 0.0128 µg/mL) | MIC80 [6]: 3.32 µM | logP [4]: 4.67

Cn1c(NCCc2ccc(-c3ccccc3)cn2)nc2cc(Cl)ccc2c1=O
IC50 at 40 h ([1]; HepG2 cells): 18.3 µM | Ratio [2]: 8 | MIC80 [3]: 0.004 µM (≈ 0.00156 µg/mL)

Cn1c(NCCc2ccc(Oc3ccc(Cl)cn3)cc2)nc2cc(Cl)ccc2c1=O
IC50 at 40 h ([1]; hepg2): 13 µM | MIC80 [3]: 0.02 µM (≈ 0.00883 µg/mL) | MIC80 [6]: 1.76 µM

CCn1c(NCCc2ccc(OC)cc2)nc2cc(Cl)ccc2c1=O
IC50 at 40 h ([1]; HepG2 cells): 21 µM | Ratio [2]: >10 | MIC80 [3]: 1.1 µM (≈ 0.394 µg/mL)

Cn1c(NCCc2ccc(-c3ncccn3)cc2)nc2cc(Cl)ccc2c1=O
IC50 at 40 h ([1]; hepg2): 25.4 µM | MIC80 [3]: 0.079 µM (≈ 0.031 µg/mL) | MIC80 [6]: 4.06 µM

COc1ccc(NCc2nc3cc(Cl)ccc3c(=O)n2C)cc1
IC50 at 40 h ([1]; HepG2 cells): 15.7 µM | Ratio [2]: >10 | MIC80 [3]: 19.9 µM (≈ 6.56 µg/mL)

Cn1c(NCCc2ccc(-c3ccc(F)cc3)cn2)nc2cc(Cl)ccc2c1=O
IC50 at 40 h ([1]; HepG2 cells): 0.057 µM | Ratio [2]: 8 | MIC80 [3]: 0.06 µM (≈ 0.0245 µg/mL) | MIC80 [6]: 4.02 µM | logP [4]: 4.23 | MIC80 [11]: 0.201 µM (≈ 0.0822 µg/mL)

Cn1c(NCCc2ccc(-c3ccc(F)cn3)cc2)nc2cc(Cl)ccc2c1=O
IC50 at 40 h ([1]; hepg2): 19 µM | MIC80 [3]: 0.015 µM (≈ 0.00613 µg/mL) | MIC80 [6]: 3.14 µM | MIC80 [11]: 0.051 µM (≈ 0.0209 µg/mL)

COc1ccc(CCNc2nc3cc(Cl)c(F)cc3c(=O)n2C)cc1
IC50 at 40 h ([1]; HepG2 cells): > 30 µM | Ratio [2]: >10 | MIC80 [3]: 0.03 µM (≈ 0.0109 µg/mL)

COc1ccc(CCNc2nc3ccc(Cl)cc3c(=O)n2C)cc1
IC50 at 40 h ([1]; HepG2 cells): 26.1 µM | Ratio [2]: >10 | MIC80 [3]: 0.9 µM (≈ 0.309 µg/mL)

COc1ccc(-c2ccc(CCNc3nc4cc(Cl)ccc4c(=O)n3C)cc2)cn1
IC50 at 40 h ([1]; HepG2 cells): 11.3 µM | Ratio [2]: 8 | MIC80 [3]: 0.09 µM (≈ 0.0379 µg/mL) | logP [4]: 4.68

Cn1c(NCCc2ccc(N3CCOCC3)cc2)nc2cc(Cl)ccc2c1=O
IC50 at 40 h ([1]; HepG2 cells): > 30 µM | Ratio [2]: 8 | solubility thermodynamic [5]: 1090 µg/mL (≈ 2740 µM) | MIC80 [3]: 0.33 µM (≈ 0.132 µg/mL) | MIC80 [6]: > 10 µM | solubility thermodynamic [7]: 8 µg/mL (≈ 20.1 µM) | IC50 (Cytochrome P450 3A4 [10]): 11 µM | permeability [8]: Permeable | IC50 (Cytochrome P450 3A4 [9]): 11 µM

Cn1c(NCCc2ccc(OC(F)(F)F)cc2)nc2cc(Cl)ccc2c1=O
IC50 at 40 h ([1]; HepG2 cells): 9.9 µM | Ratio [2]: 8 | solubility thermodynamic [5]: 43 µg/mL (≈ 108 µM) | MIC80 [3]: 0.07 µM (≈ 0.0278 µg/mL) | MIC80 [6]: 2.33 µM | solubility thermodynamic [7]: < 1 µg/mL | IC50 (Cytochrome P450 3A4 [10]): > 30 µM | logP [4]: 4.95 | permeability [8]: Permeable | IC50 (Cytochrome P450 3A4 [9]): 4 µM

COc1ccc(CCCNc2nc3cc(Cl)ccc3c(=O)n2C)cc1
IC50 at 40 h ([1]; HepG2 cells): 16.8 µM | Ratio [2]: >10 | MIC80 [3]: 5.8 µM (≈ 2.08 µg/mL)

COc1ccc(CCNc2nc3cc(F)ccc3c(=O)n2C)cc1
IC50 at 40 h ([1]; HepG2 cells): > 30 µM | Ratio [2]: >10 | MIC80 [3]: 0.2 µM (≈ 0.0655 µg/mL)

COc1ccc(CCN(C)c2nc3cc(Cl)ccc3c(=O)n2C)cc1
IC50 at 40 h ([1]; HepG2 cells): > 30 µM | Ratio [2]: >10 | MIC80 [3]: 11.2 µM (≈ 4.01 µg/mL)

COc1ccc(CCNc2nc3cc(N(C)C)ccc3c(=O)n2C)cc1
Ratio [2]: >10 | MIC80 [3]: 0.11 µM (≈ 0.0388 µg/mL) | logP [4]: 1.94

Cn1c(NCCc2ccc(Oc3ccccn3)cc2)nc2cc(Cl)ccc2c1=O
IC50 at 40 h ([1]; HepG2 cells): 12.1 µM | Ratio [2]: 8 | MIC80 [3]: 0.06 µM (≈ 0.0244 µg/mL) | MIC80 [6]: 7.37 µM

COc1ccc(-c2ccc(CCNc3nc4cc(Cl)ccc4c(=O)n3C)nc2)cc1
IC50 at 40 h ([1]; HepG2 cells): 14.7 µM | Ratio [2]: 8 | MIC80 [3]: 0.32 µM (≈ 0.135 µg/mL) | logP [4]: 4.03

COc1ccc(CCNc2nc3ccccc3c(=O)n2C)cc1
IC50 at 40 h ([1]; HepG2 cells): > 30 µM | Ratio [2]: >10 | MIC80 [3]: 0.24 µM (≈ 0.0742 µg/mL)

COc1ccc(CCNc2nc3cc(C)ccc3c(=O)n2C)cc1
IC50 at 40 h ([1]; HepG2 cells): > 30 µM | Ratio [2]: >10 | solubility thermodynamic [5]: 221 µg/mL (≈ 683 µM) | MIC80 [3]: 0.01 µM (≈ 0.00323 µg/mL) | solubility thermodynamic [7]: < 1 µg/mL | IC50 (Cytochrome P450 3A4 [10]): 4.8 µM | permeability [8]: Permeable | IC50 (Cytochrome P450 3A4 [9]): < 1 µM

COc1ccc(-c2ccc(CCNc3nc4cc(Cl)ccc4c(=O)n3C)nc2)cn1
IC50 at 40 h ([1]; HepG2 cells): 24.1 µM | Ratio [2]: 8 | MIC80 [3]: 0.31 µM (≈ 0.131 µg/mL) | MIC80 [6]: > 15 µM
